From US12122778B2, “Activating pyruvate kinase R” (Novo Nordisk Health Care AG, priority 2018, dated 2024)

Experiments:
PKR(G332S) = PKR(G332S) (Homo sapiens, UniProt P30613, G332S); experiment: Luminescence Biochemical Assay (Kinase Glo Plus), PKR G332S mutant; details: with FBP; for activation at 1.54 µM: 1.54 μM compound, read-out: AC50 LUM KGP FBP % Fold@1.54 μM mean; for AC50: read-out: AC50 LUM KGP FBP AC50 μM gmean (column A); for Emax: read-out: AC50 LUM KGP FBP MAX % FOLD mean
PKR(R510Q) = PKR(R510Q) (Homo sapiens, UniProt P30613, R510Q); experiment: Luminescence Biochemical Assay (Kinase Glo Plus), PKR R510Q mutant; details: without FBP; for activation at 1.54 µM: 1.54 μM compound, read-out: AC50 LUM KGP woFBP % Fold@1.54 μM mean; for AC50: read-out: AC50 LUM KGP woFBP AC50 μM gmean; for Emax: read-out: AC50 LUM KGP woFBP MAX % FOLD mean
PKR(wt) = PKR(wt) (Homo sapiens, UniProt P30613); experiment: Luminescence Biochemical Assay (Kinase Glo Plus), wild type PKR; details: without FBP; for activation at 1.54 µM: 1.54 μM compound, read-out: AC50 LUM KGP woFBP % Fold@1.54 μM mean; for AC50: read-out: AC50 LUM KGP woFBP AC50 μM gmean; for Emax: read-out: AC50 LUM KGP woFBP MAX % FOLD mean
Chain of PKR(wt) (P30613 whole entry): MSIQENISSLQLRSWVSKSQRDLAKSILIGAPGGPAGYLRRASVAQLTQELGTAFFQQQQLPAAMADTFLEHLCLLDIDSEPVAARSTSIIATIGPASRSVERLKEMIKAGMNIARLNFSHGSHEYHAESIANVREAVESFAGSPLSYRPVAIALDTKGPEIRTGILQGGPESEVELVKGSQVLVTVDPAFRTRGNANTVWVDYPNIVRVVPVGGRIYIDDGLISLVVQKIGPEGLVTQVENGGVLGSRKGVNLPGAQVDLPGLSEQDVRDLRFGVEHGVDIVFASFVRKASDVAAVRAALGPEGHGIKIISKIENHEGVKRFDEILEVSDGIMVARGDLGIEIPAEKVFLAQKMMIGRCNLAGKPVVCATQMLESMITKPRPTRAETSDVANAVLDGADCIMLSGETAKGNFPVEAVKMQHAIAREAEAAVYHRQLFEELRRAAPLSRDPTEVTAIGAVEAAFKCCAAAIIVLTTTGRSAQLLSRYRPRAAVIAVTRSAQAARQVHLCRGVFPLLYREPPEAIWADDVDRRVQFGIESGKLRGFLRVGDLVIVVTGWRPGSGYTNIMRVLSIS

Chain of PKR(R510Q) (P30613 whole entry R510Q): as the sequence (P30613 whole entry) above, with R510Q counted along it
Chain of PKR(G332S) (P30613 whole entry G332S): as the sequence (P30613 whole entry) above, with G332S counted along it

| activation at 1.54 µM (PKR(G332S)) [%] | AC50 (PKR(G332S)) [µM] | Emax (PKR(G332S)) [%] | activation at 1.54 µM (PKR(R510Q)) [%] | AC50 (PKR(R510Q)) [µM] | Emax (PKR(R510Q)) [%] | activation at 1.54 µM (PKR(wt)) [%] | AC50 (PKR(wt)) [µM] | Emax (PKR(wt)) [%] | Compound |
| --- | --- | --- | --- | --- | --- | --- | --- | --- | --- |
| 75 to 250 | 1 to 40 | 75 to 250 | 75 to 250 | 1 to 40 | 75 to 250 | 75 to 250 | 1 to 40 | 75 to 250 | Cc1cccc(Cl)c1S(=O)(=O)N1CC2=C(CN(C(=O)[C@@H](O)c3ccccc3)C2)C1 [Example 18-54, (2S)-1-[5-(2-chloro-6-methylbenzenesulfonyl)-1H,2H,3H,4H,5H,6H-pyrrolo[3,4-c]pyrrol-2-yl]-2-hydroxy-2-phenylethan-1-one] |
| 75 to 250 | 1 to 40 | 75 to 250 | 75 to 250 | 1 to 40 | 250 to 500 | 75 to 250 | 1 to 40 | 75 to 250 | CC(=O)Nc1ccc(S(=O)(=O)N2CC3=C(CN(C(=O)[C@H](O)c4ccccc4)C3)C2)cc1 [Example 18-56, N-[4-({5-[(2R)-2-hydroxy-2-phenylacetyl]-1H,2H,3H,4H,5H,6H-pyrrolo[3,4-c]pyrrol-2-yl}sulfonyl)phenyl]acetamide] |
| 75 to 250 | 1 to 40 | 75 to 250 | 75 to 250 | 1 to 40 | 75 to 250 | 75 to 250 | 1 to 40 | 75 to 250 | COc1cc(Cl)ccc1S(=O)(=O)N1CC2=C(CN(C(=O)[C@H](O)c3ccccc3)C2)C1 [Example 18-58, (2R)-1-[5-(4-chloro-2-methoxybenzenesulfonyl)-1H,2H,3H,4H,5H,6H-pyrrolo[3,4-c]pyrrol-2-yl]-2-hydroxy-2-phenylethan-1-one] |
| 75 to 250 | 1 to 40 | 75 to 250 | 75 to 250 | 1 to 40 | 75 to 250 | 75 to 250 | 1 to 40 | 75 to 250 | O=C([C@H]1CCCO1)N1CC2=C(C1)CN(S(=O)(=O)c1cccnc1)C2 [Example 18-59, 3-({5-[(2R)-oxolane-2-carbonyl]-1H,2H,3H,4H,5H,6H-pyrrolo[3,4-c]pyrrol-2-yl}sulfonyl)pyridine] |
| 75 to 250 | 1 to 40 | 75 to 250 | 75 to 250 | 1 to 40 | 250 to 500 | 75 to 250 | 1 to 40 | 250 to 500 | O=C([C@H]1CCCO1)N1CC2=C(C1)CN(S(=O)(=O)c1ccccn1)C2 [Example 18-60, 2-({5-[(2R)-oxolane-2-carbonyl]-1H,2H,3H,4H,5H,6H-pyrrolo[3,4-c]pyrrol-2-yl}sulfonyl)pyridine] |
| 75 to 250 | 1 to 40 | 75 to 250 | 75 to 250 | 1 to 40 | 250 to 500 | 75 to 250 | 1 to 40 | 250 to 500 | Cc1ccc(CC(=O)N2CC3=C(C2)CN(S(=O)(=O)c2ccccn2)C3)cn1 [Example 18-61, 2-(6-Methylpyridin-3-yl)-1-[5-(pyridine-2-sulfonyl)-1H,2H,3H,4H,5H,6H-pyrrolo[3,4-c]pyrrol-2-yl]ethan-1-one] |
| 75 to 250 | 1 to 40 | 75 to 250 | 75 to 250 | 1 to 40 | 250 to 500 | 75 to 250 | 0.1 to 1 | 75 to 250 | O=C([C@H](O)c1ccc(F)cc1)N1CC2=C(C1)CN(S(=O)(=O)c1cccnc1)C2 [Example 18-62, (2R)-2-(4-fluorophenyl)-2-hydroxy-1-[5-(pyridine-3-sulfonyl]-1H,2H,3H,4H,5H,6H-pyrrolo[3,4-c]pyrrol-2-yl]ethan-1-one] |
| 75 to 250 | 1 to 40 | 75 to 250 | 250 to 50000 | 0.1 to 1 | 250 to 500 | 75 to 250 | 0.1 to 1 | 250 to 500 | O=C([C@H](O)c1ccc(F)cc1)N1CC2=C(C1)CN(S(=O)(=O)c1ccccn1)C2 [Example 18-63, (2R)-2-(4-fluorophenyl)-2-hydroxy-1-[5-(pyridine-2-sulfonyl)-1H,2H,3H,4H,5H,6H-pyrrolo[3,4-c]pyrrol-2-yl]ethan-1-one] |

The next lines start with the molecule.

| Compound | activation at 1.54 µM (PKR(G332S)) [%] | AC50 (PKR(G332S)) [µM] | Emax (PKR(G332S)) [%] | activation at 1.54 µM (PKR(R510Q)) [%] | AC50 (PKR(R510Q)) [µM] | Emax (PKR(R510Q)) [%] | activation at 1.54 µM (PKR(wt)) [%] | AC50 (PKR(wt)) [µM] | Emax (PKR(wt)) [%] |
| --- | --- | --- | --- | --- | --- | --- | --- | --- | --- |
| O=C(C(O)c1ccc(C(F)(F)F)cc1)N1CC2=C(C1)CN(S(=O)(=O)c1ccc(OC(F)F)cc1)C2 (stereo not drawn) [Example 18-32, 1-{5-[4-(Difluoromethoxy)benzenesulfonyl]-1H,2H,3H,4H,5H,6H-pyrrolo[3,4-c]pyrrol-2-yl}-2-hydroxy-2-[4-(trifluoromethyl)phenyl]ethan-1-one] | 75 to 250 | 0.1 to 1 | 75 to 250 | 75 to 250 | 0.1 to 1 | 250 to 500 | 75 to 250 | 0.1 to 1 | 250 to 500 |
| Cc1nn(C)c(Cl)c1S(=O)(=O)N1CC2=C(CN(C(=O)[C@H](O)c3ccccc3)C2)C1 [Example 18-43, (2R)-1-{5-[(5-chloro-1,3-dimethyl-1H-pyrazol-4-yl)sulfonyl]-1H,2H,3H,4H,5H,6H-pyrrolo[3,4-c]pyrrol-2-yl}-2-hydroxy-2-phenylethan-1-one] | 75 to 250 | 1 to 40 | 75 to 250 | 75 to 250 | 1 to 40 | 75 to 250 | 75 to 250 | 1 to 40 | 75 to 250 |
| N#Cc1ccccc1S(=O)(=O)N1CC2=C(CN(C(=O)[C@H](O)c3ccccc3)C2)C1 [Example 18-47, 2-({5-[(2R)-2-hydroxy-2-phenylacetyl]-1H,2H,3H,4H,5H,6H-pyrrolo[3,4-c]pyrrol-2-yl}sulfonyl)benzonitrile] | 75 to 250 | 1 to 40 | 75 to 250 | 75 to 250 | 0.1 to 1 | 75 to 250 | 75 to 250 | 0.1 to 1 | 75 to 250 |
| Cc1ccc(S(=O)(=O)N2CC3=C(CN(C(=O)[C@H](O)c4ccccc4)C3)C2)cc1F [Example 18-51, (2R)-1-[5-(3-fluoro-4-methylbenzenesulfonyl)-1H,2H,3H,4H,5H,6H-pyrrolo[3,4-c]pyrrol-2-yl]-2-hydroxy-2-phenylethan-1-one] | 75 to 250 | 1 to 40 | 75 to 250 | 75 to 250 | 0.1 to 1 | 250 to 500 | 75 to 250 | 0.1 to 1 | 75 to 250 |
| O=C([C@H](O)c1ccccc1)N1CC2=C(C1)CN(S(=O)(=O)c1cc(F)cc(F)c1)C2 [Example 18-52, (2R)-1-[5-(3,5-difluorobenzenesulfonyl)-1H,2H,3H,4H,5H,6H-pyrrolo[3,4-c]pyrrol-2-yl]-2-hydroxy-2-phenylethan-1-one] | 75 to 250 | 1 to 40 | 75 to 250 | 75 to 250 | 0.1 to 1 | 75 to 250 | 75 to 250 | 0.1 to 1 | 75 to 250 |
| O=C([C@H](O)c1ccccc1)N1CC2=C(C1)CN(S(=O)(=O)c1ccc(F)c(F)c1)C2 [Example 18-53, (2R)-1-[5-(3,4-difluorobenzenesulfonyl)-1H,2H,3H,4H,5H,6H-pyrrolo[3,4-c]pyrrol-2-yl]-2-hydroxy-2-phenylethan-1-one] | 75 to 250 | 1 to 40 | 75 to 250 | 75 to 250 | 0.1 to 1 | 75 to 250 | 75 to 250 | 0.1 to 1 | 75 to 250 |
